From ChEMBL document CHEMBL3112450, “Synthesis and in vitro antitumor evaluation of primary amine substituted quinazoline linked benzimidazole” (Bioorg Med Chem Lett, 2014)

Columns and labels:
Assay type in all cases: functional
K562 = test: Cytotoxicity against human K562 cells assessed as cell growth at 10^-4 M after 48 hrs by SRB assay; conditions: K562, 48 h, read-out: Activity
MDA-MB-435 [1] = test: Cytotoxicity against human MDA-MB-435 cells after 48 hrs by SRB assay; conditions: MDA-MB-435, 48 h
HOP-92 = test: Cytotoxicity against human HOP92 cells assessed as cell growth at 10^-4 M after 48 hrs by SRB assay; conditions: HOP-92, 48 h, read-out: Activity
A498 = test: Cytotoxicity against human A498 cells assessed as cell growth at 10^-4 M after 48 hrs by SRB assay; conditions: A498, 48 h, read-out: Activity
MCF7 = test: Cytotoxicity against human MCF7 cells assessed as cell growth at 10^-7 M after 48 hrs by SRB assay; conditions: MCF7, 48 h, read-out: Activity
[2] = Cytotoxicity against human NCI-ADR-RES cells after 48 hrs by SRB assay
HCT-15 = test: Cytotoxicity against human HCT15 cells after 48 hrs by SRB assay; conditions: HCT-15, 48 h
SK-MEL-5 = test: Cytotoxicity against human SK-MEL-5 cells assessed as cell growth at 10^-6 M after 48 hrs by SRB assay; conditions: SK-MEL-5, 48 h, read-out: Activity
BT-549 = test: Cytotoxicity against human BT549 cells assessed as cell growth at 10^-4 M after 48 hrs by SRB assay; conditions: BT-549, 48 h, read-out: Activity
786-0 = test: Cytotoxicity against human 786-0 cells after 48 hrs by SRB assay; conditions: 786-0, 48 h
[3] = Cytotoxicity against human OVCAR4 cells assessed as cell growth at 10^-4 M after 48 hrs by SRB assay; conditions: OVCAR-4, 48 h, read-out: Activity
NCI-H23 = test: Cytotoxicity against human NCI-H23 cells after 48 hrs by SRB assay; conditions: NCI-H23, 48 h
MDA-MB-435 [4] = test: Cytotoxicity against human MDA-MB-435 cells assessed as cell growth at 10^-7 M after 48 hrs by SRB assay; conditions: MDA-MB-435, 48 h, read-out: Activity
SF-268 = test: Cytotoxicity against human SF268 cells assessed as cell growth at 10^-4 M after 48 hrs by SRB assay; conditions: SF-268, 48 h, read-out: Activity
RPMI-8226 = test: Cytotoxicity against human RPMI8226 cells assessed as cell growth at 10^-6 M after 48 hrs by SRB assay; conditions: RPMI-8226, 48 h, read-out: Activity
IGROV-1 = test: Cytotoxicity against human IGROV1 cells assessed as cell growth at 10^-4 M after 48 hrs by SRB assay; conditions: IGROV-1, 48 h, read-out: Activity
UACC-62 [5] = test: Cytotoxicity against human UACC62 cells assessed as cell growth at 10^-4 M after 48 hrs by SRB assay; conditions: UACC-62, 48 h, read-out: Activity
SK-MEL-28 = test: Cytotoxicity against human SK-MEL-28 cells assessed as cell growth at 10^-8 M after 48 hrs by SRB assay; conditions: SK-MEL-28, 48 h, read-out: Activity
TK-10 = test: Cytotoxicity against human TK10 cells assessed as cell growth at 10^-6 M after 48 hrs by SRB assay; conditions: TK-10, 48 h, read-out: Activity
SK-OV-3 = test: Cytotoxicity against human SKOV3 cells assessed as cell growth at 10^-8 M after 48 hrs by SRB assay; conditions: SK-OV-3, 48 h, read-out: Activity
OVCAR-3 = test: Cytotoxicity against human OVCAR3 cells assessed as cell growth at 10^-7 M after 48 hrs by SRB assay; conditions: OVCAR-3, 48 h, read-out: Activity
RXF 393 = test: Cytotoxicity against human RXF393 cells assessed as cell growth at 10^-4 M after 48 hrs by SRB assay; conditions: RXF 393, 48 h, read-out: Activity
MDA-MB-468 = test: Cytotoxicity against human MDA-MB-468 cells assessed as cell growth at 10^-4 M after 48 hrs by SRB assay; conditions: MDA-MB-468, 48 h, read-out: Activity
UACC-62 [6] = test: Cytotoxicity against human UACC62 cells after 48 hrs by SRB assay; conditions: UACC-62, 48 h
[7] = Cytotoxicity against human OVCAR5 cells assessed as cell growth at 10^-4 M after 48 hrs by SRB assay; conditions: OVCAR-5, 48 h, read-out: Activity
CAKI-1 [8] = test: Cytotoxicity against human Caki1 cells assessed as cell growth at 10^-8 M after 48 hrs by SRB assay; conditions: CAKI-1, 48 h, read-out: Activity
[9] = Cytotoxicity against human OVCAR4 cells assessed as cell growth at 10^-8 M after 48 hrs by SRB assay; conditions: OVCAR-4, 48 h, read-out: Activity
SN12C = test: Cytotoxicity against human SN12C cells after 48 hrs by SRB assay
LOX IMVI = test: Cytotoxicity against human LOXIMVI cells assessed as cell growth at 10^-4 M after 48 hrs by SRB assay; conditions: read-out: Activity
CCRF-CEM [10] = test: Cytotoxicity against human CCRF-CEM cells assessed as cell growth at 10^-7 M after 48 hrs by SRB assay; conditions: read-out: Activity
KM12 = test: Cytotoxicity against human KM12 cells assessed as cell growth at 10^-7 M after 48 hrs by SRB assay; conditions: KM12, 48 h, read-out: Activity
T47D = test: Cytotoxicity against human T47D cells assessed as cell growth at 10^-4 M after 48 hrs by SRB assay; conditions: read-out: Activity
[11] = Cytotoxicity against human NCI-ADR-RES cells assessed as cell growth at 10^-4 M after 48 hrs by SRB assay; conditions: read-out: Activity
CAKI-1 [12] = test: Cytotoxicity against human Caki1 cells assessed as cell growth at 10^-6 M after 48 hrs by SRB assay; conditions: CAKI-1, 48 h, read-out: Activity
CCRF-CEM [13] = test: Cytotoxicity against human CCRF-CEM cells assessed as cell growth at 10^-4 M after 48 hrs by SRB assay; conditions: read-out: Activity
HCC 2998 = test: Cytotoxicity against human HCC2998 cells assessed as cell growth at 10^-7 M after 48 hrs by SRB assay; conditions: HCC 2998, 48 h, read-out: Activity
MOLT-4 = test: Cytotoxicity against human MOLT4 cells assessed as cell growth at 10^-6 M after 48 hrs by SRB assay; conditions: MOLT-4, 48 h, read-out: Activity
Malme-3M = test: Cytotoxicity against human MALME-3M cells assessed as cell growth at 10^-6 M after 48 hrs by SRB assay; conditions: read-out: Activity
[14] = read-out: LC50 (the source's name)

C=CCn1c(C)nc2cc(Nc3nc(Nc4ccc5nc(C)n(CC=C)c5c4)c4ccccc4n3)ccc21 gave a growth at 100 µM (K562) of 2%, a GI50 (MDA-MB-435 [1]) of 0.532 µM and a TGI (MDA-MB-435 [1]) of 1.82 µM. It also gave a growth at 100 µM (HOP-92) of -84%, a growth at 100 µM (A498) of -85% and a growth at 0.1 µM (MCF7) of 103%. The GI50 [2] was 1.84 µM, the LC50 [2] was > 100 µM and the TGI [2] was 4.43 µM. It also gave a GI50 (HCT-15) of 0.352 µM, a growth at 1 µM (SK-MEL-5) of 78% and a growth at 100 µM (BT-549) of -46%. For the same compound, the GI50 (786-0) was 0.188 µM, the TGI (786-0) was 0.362 µM and the growth at 100 µM [3] was -29%. It also gave a GI50 (NCI-H23) of 2.05 µM, a TGI (NCI-H23) of 4.2 µM and a growth at 0.1 µM (MDA-MB-435 [4]) of 97%. It also gave a growth at 100 µM (SF-268) of -82%, a growth at 1 µM (RPMI-8226) of 59% and a growth at 100 µM (IGROV-1) of -43%. It also gave a growth at 100 µM (UACC-62 [5]) of -47%, a growth at 0.01 µM (SK-MEL-28) of 108% and a growth at 1 µM (TK-10) of 30%. It also gave a growth at 0.01 µM (SK-OV-3) of 95%, a growth at 0.1 µM (OVCAR-3) of 101% and a growth at 100 µM (RXF 393) of -31%. It also gave a growth at 100 µM (MDA-MB-468) of -2%, a GI50 (UACC-62 [6]) of 1.26 µM and a TGI (UACC-62 [6]) of 2.59 µM. It also gave a growth at 100 µM [7] of -44%, a growth at 0.01 µM (CAKI-1 [8]) of 94% and a growth at 0.01 µM [9] of 93%. For the same compound, the GI50 (SN12C) was 1.28 µM, the TGI (SN12C) was 2.9 µM and the growth at 100 µM (LOX IMVI) was -71%. For the same compound, the growth at 0.1 µM (CCRF-CEM [10]) was 107%, the growth at 0.1 µM (KM12) was 98% and the growth at 100 µM (T47D) was -13%. For the same compound, the growth at 100 µM [11] was -24%, the growth at 1 µM (CAKI-1 [12]) was 88% and the growth at 100 µM (CCRF-CEM [13]) was -19%. It also gave a growth at 0.1 µM (HCC 2998) of 100%, a growth at 1 µM (MOLT-4) of -23% and a growth at 1 µM (Malme-3M) of 120%.
Work on C=CCn1c(C)nc2ccc(Nc3nc(Nc4ccc(F)cc4)nc4ccccc34)cc21 yielded a growth at 100 µM (K562) of -41%, a GI50 (MDA-MB-435 [1]) of 4 µM and an LC50 (concentration killing 50% of cells) (MDA-MB-435 [1]) of 92.4 µM. It also gave a TGI (MDA-MB-435 [1]) of 20.4 µM, a growth at 100 µM (HOP-92) of -84% and a growth at 100 µM (A498) of -68%. The growth at 0.1 µM (MCF7) was 87%, the GI50 [2] was 4.01 µM and the LC50 [2] was > 100 µM. For the same compound, the TGI [2] was 37.7 µM, the GI50 (HCT-15) was 2.84 µM and the LC50 (HCT-15) was > 100 µM. It also gave a TGI (HCT-15) of 10.4 µM, a growth at 1 µM (SK-MEL-5) of 73% and a growth at 100 µM (BT-549) of -61%. The GI50 (786-0) was 7.44 µM, the TGI (786-0) was 23.8 µM and the CC50 (786-0; [14]) was 65.1 µM. The growth at 100 µM [3] was -13%, the GI50 (NCI-H23) was 4.23 µM and the LC50 (concentration giving 50% net cell kill) (NCI-H23) was > 100 µM. For the same compound, the TGI (NCI-H23) was 26 µM, the growth at 0.1 µM (MDA-MB-435 [4]) was 100% and the growth at 100 µM (SF-268) was -59%. For the same compound, the growth at 1 µM (RPMI-8226) was 84%, the growth at 100 µM (IGROV-1) was -51% and the growth at 100 µM (UACC-62 [5]) was -70%. The growth at 0.01 µM (SK-MEL-28) was 95%, the growth at 1 µM (TK-10) was 100% and the growth at 0.01 µM (SK-OV-3) was 96%. The growth at 0.1 µM (OVCAR-3) was 98%, the growth at 100 µM (RXF 393) was -56% and the growth at 100 µM (MDA-MB-468) was -37%. It also gave a GI50 (UACC-62 [6]) of 1.8 µM, a TGI (UACC-62 [6]) of 3.7 µM and a CC50 (UACC-62 [6]; [14]) of 7.59 µM. For the same compound, the growth at 100 µM [7] was -80%, the growth at 0.01 µM (CAKI-1 [8]) was 100% and the growth at 0.01 µM [9] was 96%. The GI50 (SN12C) was 2.78 µM, the LC50 (SN12C) was > 100 µM and the TGI (SN12C) was 15.1 µM. For the same compound, the growth at 100 µM (LOX IMVI) was -42%, the growth at 0.1 µM (CCRF-CEM [10]) was 102% and the growth at 0.1 µM (KM12) was 94%. It also gave a growth at 100 µM (T47D) of -13%, a growth at 100 µM [11] of -15% and a growth at 1 µM (CAKI-1 [12]) of 93%. For the same compound, the growth at 100 µM (CCRF-CEM [13]) was -23%, the growth at 0.1 µM (HCC 2998) was 97% and the growth at 1 µM (MOLT-4) was 73%. It also gave a growth at 1 µM (Malme-3M) of 101%.
